Consider 1 molecule from patent US8729088B2, “Toll-like receptor modulators and treatment of diseases” (The Regents of the University of California, priority 2009, dated 2014).

The test relates to C57BL/6 mice. Description: Serum transferred arthritis (K/BxN serum). Format: in vivo, mouse. On the procedure:
The anti-inflammatory efficacy of TLR7 agonist-PEG conjugates was tested in mouse models of human inflammatory diseases (serum transfer arthritis, experimental allergic encephalomyelitis (EAE) (see above), and thioglycollate induced peritonitis).

Turning to `COCCOc1nc(N)c2nc(O)n(Cc3ccc(C(=O)NCCOCCOCCOCCOCCOCCOCCOCCOCCOCCOCCn4cc(CCC(=O)O)nn4)cc3)c2n1` [Compound 8, 3-(1-(1-(4-((6-amino-8-hydroxy-2-(2-methoxyethoxy)-9H-purin-9-yl)methyl)phenyl)-1-oxo-5,8,11,14,17,20,23,26,29,32-decaoxa-2-azatetratriacontan-34-yl)-1H-1,2,3-triazol-4-yl)propanoic acid], the paw swelling result (daily gavage) was “reduced paw swelling” and the paw swelling result (daily subcutaneous injection) is “reduced paw swelling”.
